Values of other authors in US20080171791A1, “Compositions and Method for Losing Weight” (MDR Fitness Corp., priority 2007, published 2008).

Key:
[1] = long-term / large quantities / higher amounts ingested
[2] = test system: mammalian target of rapamycin (mTOR) signaling pathway; conditions: rats; for food intake: administered near arcuate nucleus, approximately four hours after administration, lasted 24 hours
[3] = in vivo
lipogenic genes = conditions: compared with oleic acid (C18-1)

Row | Structure (SMILES) | reported adverse effects [1] | solubility in water | food intake [2] | crossing the blood-brain barrier [3] | suppression of lipogenic genes (lipogenic genes) | further results
1 | CC(C)[C@H](N)C(=O)O [L-valine, valine] | hallucinations and crawling sensations on the skin | water soluble | did not cause the same effect | – | – | –
2 | CC(C)C[C@H](N)C(=O)O [L-leucine, leucine] | – | slightly soluble in water | decrease | capable of crossing the blood-brain barrier | – | body weight ([2]; accompanying decrease in food intake): weight loss
3 | CCCCC/C=C\C/C=C\CCCCCCCC(=O)O [linoleic acid] | – | – | – | – | more effective | –
4 | CCC(C)[C@H](N)C(=O)O (stereo in doubt) [Isoleucine, (2S, 3S)-2-amino-3-methylpentanoic acid] | increased urination | not soluble in water | – | – | – | –
5 | CCCCC/C=C\C/C=C\C/C=C\C/C=C\CCCC(=O)O [arachidonic acid] | – | – | – | – | more effective | –
6 | CCCCCCCCC=CCCCCCCCC(=O)O [oleic acid, 9-octadecenoic acid] | – | – | – | capable of crossing the blood-brain barrier | – | absorption from the digestive tract [3]: absorbed intact
